Test results as given in ChEMBL document CHEMBL3044665, “Adzuki bean (Vigna angularis) responses to post-emergence herbicides” (Crop Prot, 2006).

Assays:
Format in all cases: organism-based
Vigna angularis [1] = experiment: Phytotoxicity in Vigna angularis (adzuki bean) assessed as visual injury at 72 g ai/ha after 7 days applied as spray relative to untreated control; conditions: in vivo, other, 168 h
Vigna angularis [2] = experiment: Phytotoxicity in Vigna angularis (adzuki bean) assessed as visual injury at 144 g ai/ha after 14 days applied as spray relative to untreated control; conditions: in vivo, other, 336 h
Vigna angularis [3] = experiment: Phytotoxicity in Vigna angularis (adzuki bean) assessed as shoot dry weight at 144 g ai/ha measured per 1 m row after 42 days applied as spray (reference value: 153 g); conditions: in vivo, other, 1008 h
Vigna angularis [4] = experiment: Phytotoxicity in Vigna angularis (adzuki bean) assessed as seed moisture content at 72 g ai/ha after 42 days applied as spray (reference value: 13.9%); conditions: in vivo, other, 1008 h, at 72 g/ha
Vigna angularis [5] = experiment: Phytotoxicity in Vigna angularis (adzuki bean) assessed as visual injury at 144 g ai/ha after 7 days applied as spray relative to untreated control; conditions: in vivo, other, 168 h
Vigna angularis [6] = experiment: Phytotoxicity in Vigna angularis (adzuki bean) assessed as plant height at 144 g ai/ha after 28 days applied as spray (RVB = 34 cm); conditions: in vivo, other, 672 h
Vigna angularis [7] = experiment: Phytotoxicity in Vigna angularis (adzuki bean) assessed as seed moisture content at 144 g ai/ha after 42 days applied as spray (reference value: 13.9%); conditions: in vivo, other, 1008 h, at 144 g/ha
Vigna angularis [8] = experiment: Phytotoxicity in Vigna angularis (adzuki bean) assessed as plant height at 72 g ai/ha after 28 days applied as spray (RVB = 34 cm); conditions: in vivo, other, 672 h
Vigna angularis [9] = experiment: Phytotoxicity in Vigna angularis (adzuki bean) assessed as visual injury at 72 g ai/ha after 28 days applied as spray relative to untreated control; conditions: in vivo, other, 672 h
Vigna angularis [10] = experiment: Phytotoxicity in Vigna angularis (adzuki bean) assessed as crop yield at 144 g ai/ha measured during post emergence applied as spray (reference value: 2.05 t/ha); conditions: in vivo, other
Vigna angularis [11] = experiment: Phytotoxicity in Vigna angularis (adzuki bean) assessed as visual injury at 72 g ai/ha after 14 days applied as spray relative to untreated control; conditions: in vivo, other, 336 h
Vigna angularis [12] = experiment: Phytotoxicity in Vigna angularis (adzuki bean) assessed as shoot dry weight at 72 g ai/ha measured per 1 m row after 42 days applied as spray (reference value: 153 g); conditions: in vivo, other, 1008 h
Vigna angularis [13] = experiment: Phytotoxicity in Vigna angularis (adzuki bean) assessed as visual injury at 144 g ai/ha after 28 days applied as spray relative to untreated control; conditions: in vivo, other, 672 h
Vigna angularis [14] = experiment: Phytotoxicity in Vigna angularis (adzuki bean) assessed as crop yield at 72 g ai/ha measured during post emergence applied as spray (reference value: 2.05 t/ha); conditions: in vivo, other
Vigna angularis [15] = experiment: Phytotoxicity in Vigna angularis (adzuki bean) assessed as seed moisture content at 1000 g ai/ha after 42 days applied as spray (reference value: 13.9%); conditions: in vivo, other, 1008 h, at 1000 g/ha
Vigna angularis [16] = experiment: Phytotoxicity in Vigna angularis (adzuki bean) assessed as seed moisture content at 500 g ai/ha after 42 days applied as spray (reference value: 13.9%); conditions: in vivo, other, 1008 h, at 500 g/ha
Vigna angularis [17] = experiment: Phytotoxicity in Vigna angularis (adzuki bean) assessed as shoot dry weight at 500 g ai/ha measured per 1 m row after 42 days applied as spray (reference value: 153 g); conditions: in vivo, other, 1008 h
Vigna angularis [18] = experiment: Phytotoxicity in Vigna angularis (adzuki bean) assessed as visual injury at 500 g ai/ha after 14 days applied as spray relative to untreated control; conditions: in vivo, other, 336 h
Vigna angularis [19] = experiment: Phytotoxicity in Vigna angularis (adzuki bean) assessed as crop yield at 500 g ai/ha measured during post emergence applied as spray (reference value: 2.05 t/ha); conditions: in vivo, other
Vigna angularis [20] = experiment: Phytotoxicity in Vigna angularis (adzuki bean) assessed as visual injury at 500 g ai/ha after 7 days applied as spray relative to untreated control; conditions: in vivo, other, 168 h
Vigna angularis [21] = experiment: Phytotoxicity in Vigna angularis (adzuki bean) assessed as crop yield at 1000 g ai/ha measured during post emergence applied as spray (reference value: 2.05 t/ha); conditions: in vivo, other
Vigna angularis [22] = experiment: Phytotoxicity in Vigna angularis (adzuki bean) assessed as shoot dry weight at 1000 g ai/ha measured per 1 m row after 42 days applied as spray (reference value: 153 g); conditions: in vivo, other, 1008 h
Vigna angularis [23] = experiment: Phytotoxicity in Vigna angularis (adzuki bean) assessed as visual injury at 500 g ai/ha after 28 days applied as spray relative to untreated control; conditions: in vivo, other, 672 h
Vigna angularis [24] = experiment: Phytotoxicity in Vigna angularis (adzuki bean) assessed as visual injury at 1000 g ai/ha after 14 days applied as spray relative to untreated control; conditions: in vivo, other, 336 h
Vigna angularis [25] = experiment: Phytotoxicity in Vigna angularis (adzuki bean) assessed as plant height at 1000 g ai/ha after 28 days applied as spray (RVB = 34 cm); conditions: in vivo, other, 672 h
Vigna angularis [26] = experiment: Phytotoxicity in Vigna angularis (adzuki bean) assessed as plant height at 500 g ai/ha after 28 days applied as spray (RVB = 34 cm); conditions: in vivo, other, 672 h
Vigna angularis [27] = experiment: Phytotoxicity in Vigna angularis (adzuki bean) assessed as visual injury at 1000 g ai/ha after 28 days applied as spray relative to untreated control; conditions: in vivo, other, 672 h
Vigna angularis [28] = experiment: Phytotoxicity in Vigna angularis (adzuki bean) assessed as visual injury at 1000 g ai/ha after 7 days applied as spray relative to untreated control; conditions: in vivo, other, 168 h

CCOC(=O)[C@@H](C)Oc1ccc(Oc2cnc3cc(Cl)ccc3n2)cc1 [QUIZALOFOP-P-ETHYL]
Activity (Vigna angularis [1]): 1.4% | Activity (Vigna angularis [2]): 1.8% | Activity (Vigna angularis [3]): 135 g | Activity (Vigna angularis [4]): 13.9% | Activity (Vigna angularis [5]): 2.4% | Activity (Vigna angularis [6]): 33.2 cm | Activity (Vigna angularis [7]): 14.1% | Activity (Vigna angularis [8]): 35.2 cm | Activity (Vigna angularis [9]): 0.3% | Crop_yield (Vigna angularis [10]): 2.08 tons/ha | Activity (Vigna angularis [11]): 1.2% | Activity (Vigna angularis [12]): 140 g | Activity (Vigna angularis [13]): 0.8% | Crop_yield (Vigna angularis [14]): 2.22 tons/ha

CCC/C(=N\OCC)C1=C(O)CC(CC(C)SCC)CC1=O (stereo not drawn) [SETHOXYDIM]
Activity (Vigna angularis [15]): 14.3% | Activity (Vigna angularis [16]): 14.1% | Activity (Vigna angularis [17]): 134 g | Activity (Vigna angularis [18]): 1.6% | Crop_yield (Vigna angularis [19]): 2.04 tons/ha | Activity (Vigna angularis [20]): 3.7% | Crop_yield (Vigna angularis [21]): 1.95 tons/ha | Activity (Vigna angularis [22]): 142 g | Activity (Vigna angularis [23]): 0.4% | Activity (Vigna angularis [24]): 3.6% | Activity (Vigna angularis [25]): 32.8 cm | Activity (Vigna angularis [26]): 33.1 cm | Activity (Vigna angularis [27]): 1.1% | Activity (Vigna angularis [28]): 4.9%
